Article PMC6609541, “Enterohepatic circulation of glucuronide metabolites of drugs in dog” (Pharmacology Research & Perspectives, 2019)
Like-named read-outs stand apart in the source and are kept apart here.

Experiments:
UGT (glucuronidation) [1] = assay: Liver microsomal glucuronidation assay (dog); assay type: in vitro ADME; conditions: liver microsomes, pH 7.5, dog, without BSA
Procedure: (§1) Intrinsic clearance of the compounds by glucuronidation was conducted in human and dog liver and kidney microsomes. Microsomes (0.5 mg/mL) with or without 2% bovine serum albumin (BSA), 100 mmol/L Tris‐HCl buffer, (pH 7.5), containing 5 mmol/L MgCl2 and 50 µg of alamethicin were mixed and placed on ice for 15 minutes. Canagliflozin or DPTQ (2 µmol/L final concentration) were added, and the mixture was pre‐incubated at 37°C for 3 minutes. A 0‐minute time point was obtained and the reaction initiated by the addition of UDPGA (5 mmol/L final concentration). Aliquots of the incubation (50 µL) were removed at various time points 5, 15, 30, 60 and 120 minutes, and added to the quench solution (1:1 acetonitrile:water). The zero minute time points were also quenched in the same manner. Substrate concentrations were then measured by LC/MS and the intrinsic clearance values (μL/min/mg protein) were calculated using following equation. CLint=-kdep×incubation volume/mg protein
(§2) In which the depletion rate constant (k dep) is the slope determined using linear regression from the log transformed % remaining on the y‐axis vs time on the x‐axis (min^− ^1). […] To determine the unbound intrinsic clearances the microsomal Clint values were divided by the respective microsomal fraction unbound values. The microsomal unbound fraction both with and without 2% BSA was determined as described previously.15

UGT [2] = assay: Liver microsomal glucuronidation assay (dog); assay type: in vitro ADME; conditions: dog liver microsomes, pH 7.5, dog, with 2% BSA
Procedure: as §1, §2

UGT (glucuronidation) [3] = assay: Liver microsomal glucuronidation assay (human); assay type: in vitro ADME; conditions: liver microsomes, pH 7.5, with 2% BSA, Clint divided by microsomal unbound fraction, read-out: Clint,u, Liver microsomes
Procedure: as §1, §2

UGT [4] = assay: Liver microsomal glucuronidation assay (human); assay type: in vitro ADME; conditions: human liver microsomes, pH 7.5, with 2% BSA
Procedure: as §1, §2

P-gp = target: T1, P-gp (Homo sapiens, UniProt P08183); assay: Bi‐directional transport across MDCKII cells expressing human P‐gp; assay type: in vitro ADME; set-up: key to Pgp substrate: S, substrate; NS, non‐substrate; conditions: human, MDCK-MDR1, with 2.5 μmol/L LSN335984, uninhibited ratio divided by inhibited ratio; NER >3.0 = P‐gp substrate; read-out: Net efflux ratio
T1 construct: host or cells: MDCKII
Procedure: (§3) MDCKII cells stably expressing human wild‐type P‐gp were obtained from the Netherlands Cancer Institute Amsterdam, The Netherlands). MDCK cells were maintained and the assay was conducted essentially as described previously.12, 13 Transport was measured in both directions across uninhibited and inhibited cell monolayers using a substrate concentration of 5 μmol/L diluted from a 10 mmol/L DMSO stock solution final DMSO concentration of 0.05%) and a single 60‐min time interval.

human wild‐type P‐gp = target: T2, human wild‐type P‐gp (Homo sapiens, UniProt P08183); assay: as above; assay type: in vitro ADME; set-up: key to Pgp substrate: S, substrate; NS, non‐substrate; conditions: for PappA‐B / PappB‐A: 5 µmol/L compound; for P‐gp substrate: P‐gp‐transfected MDCKII cells; for P‐gp substrate / MDCK permeability (passive membrane permeability): in words; for Pgp substrate: classified from net efflux ratio (NER >3.0 = substrate); for Net efflux ratio: uninhibited ratio divided by inhibited ratio, NER >3.0 = P‐gp substrate
T2 construct: host or cells: MDCKII
Procedure: as §3

[5] = tested on: human intestinal microsomes; assay: Intestinal glucuronidation in human intestinal microsomes; assay type: in vitro ADME; conditions: data not shown
UGT (glucuronidation) [6] = assay: Kidney microsomal glucuronidation assay (human); assay type: in vitro ADME; conditions: kidney microsomes, pH 7.5, human, with 2% BSA
Procedure: as §1, §2

[7] = human, cited from earlier work; for EHC: enterohepatic circulation ref 11
[8] = tested on: human intestinal microsomes; set-up: method as in PMID 27862160; conditions: human intestinal microsomes ref 6; cited from earlier work
[9] = Clint divided by microsomal unbound fraction, read-out: Clint,u, Liver microsomes
[10] = MDR1‐MDCKII_inhibitor (2.5 µmol/L P‐gp inhibitor LSN335984)

T2 sequence (P08183 whole entry): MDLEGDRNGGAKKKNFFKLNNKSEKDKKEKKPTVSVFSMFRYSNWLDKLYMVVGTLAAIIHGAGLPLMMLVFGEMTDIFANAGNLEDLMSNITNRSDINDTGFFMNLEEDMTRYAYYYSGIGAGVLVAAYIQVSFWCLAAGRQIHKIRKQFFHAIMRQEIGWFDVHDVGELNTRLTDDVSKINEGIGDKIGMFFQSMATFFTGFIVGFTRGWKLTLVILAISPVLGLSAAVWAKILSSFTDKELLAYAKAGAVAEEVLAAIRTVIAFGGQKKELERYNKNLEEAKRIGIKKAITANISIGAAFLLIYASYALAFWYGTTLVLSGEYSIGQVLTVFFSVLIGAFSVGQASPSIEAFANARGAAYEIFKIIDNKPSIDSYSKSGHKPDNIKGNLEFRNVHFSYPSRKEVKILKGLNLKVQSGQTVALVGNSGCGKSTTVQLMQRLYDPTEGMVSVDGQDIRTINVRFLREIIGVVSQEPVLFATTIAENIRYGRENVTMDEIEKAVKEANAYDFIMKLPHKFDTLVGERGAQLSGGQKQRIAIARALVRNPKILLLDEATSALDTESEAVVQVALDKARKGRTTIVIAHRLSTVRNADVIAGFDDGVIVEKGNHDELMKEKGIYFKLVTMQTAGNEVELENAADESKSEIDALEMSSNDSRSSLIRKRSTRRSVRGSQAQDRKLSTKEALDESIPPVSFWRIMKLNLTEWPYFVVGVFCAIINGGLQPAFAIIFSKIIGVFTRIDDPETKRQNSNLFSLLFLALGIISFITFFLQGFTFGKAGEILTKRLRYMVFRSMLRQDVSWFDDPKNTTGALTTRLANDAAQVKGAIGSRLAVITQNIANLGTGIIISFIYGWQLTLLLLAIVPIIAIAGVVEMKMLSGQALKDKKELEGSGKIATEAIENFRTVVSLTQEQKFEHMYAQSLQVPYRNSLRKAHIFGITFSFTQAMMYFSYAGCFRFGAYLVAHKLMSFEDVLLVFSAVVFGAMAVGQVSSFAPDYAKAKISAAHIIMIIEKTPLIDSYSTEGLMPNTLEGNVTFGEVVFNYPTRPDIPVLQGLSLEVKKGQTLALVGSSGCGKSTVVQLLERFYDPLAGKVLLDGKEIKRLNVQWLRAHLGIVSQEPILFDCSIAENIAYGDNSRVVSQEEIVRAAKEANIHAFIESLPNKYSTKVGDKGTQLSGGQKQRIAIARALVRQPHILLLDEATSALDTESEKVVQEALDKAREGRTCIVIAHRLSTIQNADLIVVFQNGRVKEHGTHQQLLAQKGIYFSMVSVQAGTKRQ
T1 sequence (P08183 whole entry): as above

| SMILES | microsomal CLint at 2 µmol/L (UGT (glucuronidation) [3]) [µL/min/mg] | microsomal CLint at 2 µmol/L (UGT [4]) [µL/min/mg] | PappB‐A/PappA‐B (human wild‐type P‐gp; MDR1‐MDCKII_control) | PappA‐B (human wild‐type P‐gp; MDR1‐MDCKII_control) | PappB‐A (human wild‐type P‐gp; MDR1‐MDCKII_control) | PappB‐A/PappA‐B (human wild‐type P‐gp; MDR1‐MDCKII_inhibitor) | PappA‐B (human wild‐type P‐gp; [10]) | PappB‐A (human wild‐type P‐gp; [10]) | P‐gp substrate (human wild‐type P‐gp) | Pgp substrate (human wild‐type P‐gp) | MDCK permeability (passive membrane permeability) (human wild‐type P‐gp) | also measured |
| --- | --- | --- | --- | --- | --- | --- | --- | --- | --- | --- | --- | --- |
| C[C@H]1c2cccc(CC(C)(C)O)c2C[C@H](CO)N1C(=O)Cc1c(Cl)cccc1Cl [DPTQ, 2‐(2,6‐dichlorophenyl)‐1‐((1S,3R)‐5‐(2‐hydroxy‐2‐methylpropyl)‐3‐(hydroxymethyl)‐1‐methyl‐3,4‐dihydroisoquinolin‐2(1H)‐yl)ethan‐1‐one] | 47.1 | 5.6 | 1.5 | 43.0 ± 4.5 10^–6cm/s | 62.6 ± 2.6 10^–6cm/s | 1.1 | 48.9 ± 5.9 10^–6cm/s | 53.5 ± 0.4 10^–6cm/s | not a P‐gp substrate and no | NS | high and High | microsomal CLint at 2 µmol/L (UGT (glucuronidation) [1]; 2 µmol/L, 0.5 mg/mL, UDPGA, ND = Clint < 1.8, read-out: Clint, Liver microsomes): 99 µL/min/mg; microsomal CLint at 2 µmol/L (UGT (glucuronidation) [1]; [9]): 123 µL/min/mg; microsomal CLint at 2 µmol/L (UGT [2]; [9]): 667 µL/min/mg; microsomal CLint at 2 µmol/L (UGT [2]; ND = Clint < 1.8, read-out: Clint, Liver microsomes): 79.4 µL/min/mg; efflux ratio at 60 min, 5 μmol/L (P-gp): 1.3; intestinal glucuronidation [5]: negligible |
| Cc1ccc([C@@H]2O[C@H](CO)[C@@H](O)[C@H](O)[C@H]2O)cc1Cc1ccc(-c2ccc(F)cc2)s1 [Canagliflozin] | 422 | 7.6 | 22 | 4.0 ± 1.8 10^–6cm/s | 89.2 ± 8.2 10^–6cm/s | 1.3 | 10.8 ± 1.4 10^–6cm/s | 14.1 ± 0.1 10^–6cm/s | yes | S | Moderate | microsomal CLint at 2 µmol/L (UGT (glucuronidation) [6]; Clint divided by microsomal unbound fraction, read-out: Clint,u, Kidney microsomes): 222 µL/min/mg; microsomal CLint at 2 µmol/L (UGT (glucuronidation) [6]; ND = Clint < 1.8, read-out: Clint, Kidney microsomes): 4 µL/min/mg; P‐gp substrate (human wild‐type P‐gp; listed as canagliflozin): P‐gp substrate; MDCK permeability (passive membrane permeability) (human wild‐type P‐gp; listed as canagliflozin): moderate; Net efflux ratio (human wild‐type P‐gp): 17.1; Net efflux ratio (human wild‐type P‐gp; listed as canagliflozin): > 3; EHC [7]: No; EHC ([7]; listed as canagliflozin): negligible; Urinary excretion % of glucuronide ([7]; From human 14C study ref 5): Moderate ^d (moderate 30%‐70%); intestinal glucuronidation [8]: negligible |
